According to PMC10986598, “Investigating inhibitors of 1-deoxy-D-xylulose 5-phosphate synthase in a mouse model of UTI” (Microbiology Spectrum, 2024):
“Also recorded” adds a separate entry of the source.

How the values were obtained:
[1] = tested on: UPEC strain CFT073; assay: In vivo ascending UTI assay (prophylaxis); parameters: species or system Escherichia coli in C3H/HeN mice; settings: for median log reduction of bacterial burden vs PBS-treated cohort: bladder, 48 h
Procedure: Female mice were injected subcutaneously in the flank with 2.5 mg of MPA (150 mg/mL, diluted in sterile saline) 7 days prior to inoculation ([60]). Mice were dosed vaginally with 30 µL of sterile saline lavage fluid immediately prior to inoculation. The fluid was collected, placed on a slide, heat fixed, Gram stained, and assessed to determine the estrous cycle stage of each mouse as previously described ([61]).
Six-week-old female C3H/HeN mice were inoculated with UPEC as previously described ([28]). Briefly, UPEC strain CFT073 (ATCC designation: BAA-2503) was streaked on LB agar from a frozen glycerol stock and grown overnight at 37°C. Following overnight incubation, three to five colonies were picked and subcultured into 10 mL of sterile LB, and the culture was incubated statically overnight at 37°C. The culture was diluted 1:1,000 (25 µL of culture into 25 mL of sterile LB) and incubated statically for 24 h at 37°C to promote the growth of bacteria with type-1 pili expression. The resulting 25 mL inoculum was centrifuged at 4,200 × g for 20 min at 4°C. The supernatant was removed, and the cell pellet was resuspended in 10 mL of sterile PBS. The OD600 was adjusted to 1.0 by the addition of PBS to give a cell density of approximately 4 × 10^7 to 1 × 10^8 CFUs per 50 µL, the volume of the inoculum. Cell counts were validated by plating a dilution of the inoculum solution and enumerating following overnight incubation.
Urinary catheters were assembled by threading 30G needles with 0.28 mm inner diameter polyethylene tubing to create a soft tip. Catheter tips were dipped in lubricant immediately before inoculation. During catheterization, urine was aspirated from the bladder prior to inoculation with 50 µL of UPEC inoculum, prepared as described above. Mice were housed with their drug-dosed cohort and dosed intraperitoneally according to each experiment’s dosing regimen as shown in the figures. Dosing regimen for BAP trial 1 (Fig. 7b)consisted of IP administration of BAP (300 mg/kg) 30 min before inoculation; dosing regimen for BAP trial 2 (Fig. 7c) consisted of IP administration of BAP (600 mg/kg) 30 min before inoculation followed with IP doses of BAP (300 mg/kg) at 1 and 3 hpi; dosing regimen for BAP trial 3 and the pro-hpAP trial (Fig. 7d) consisted of IP administration of BAP (600 mg/kg) or pro-hpAP (60 mg/kg) 30 min before inoculation followed with IP doses of BAP (300 mg/kg) or pro-hpAP (30 mg/kg) at 1, 3, and 24 hpi; dosing regimen 4 (Fig. S3) consisted of IP administration of BAP (600 mg/kg) 30 min before inoculation followed with IP doses of BAP (300 mg/kg) at 1, 3, 6, 10, 22, 26, and 30 hpi. Gentamicin diluted in sterile PBS was used as a positive control and was administered to mice at 10 mg/kg IP 30 min prior to inoculation in all experiments.
After 48 h, mice were anesthetized by isoflurane inhalation and sacrificed by cervical dislocation. Bladders were harvested, added to 1 mL sterile PBS, and homogenized with a hand-held homogenizer in a biosafety cabinet. Tissue homogenates were serially-diluted (five 10-fold dilutions), and 100 µL of each dilution was plated onto LB plates and enumerated after a 24 h incubation at 37°C, yielding an effective detection range of 1 × 10^2–150 × 10^8 CFU/mL. In a few cases, bacterial counts fell below the lower limit of detection or above the upper limit of detection and are reported as 0 CFU/mL or conservatively 200 × 10^8 CFU/mL, respectively.

[2] = tested on: E. coli; settings: cited from earlier work
[3] = In vitro stability in mouse plasma; assay type: in vitro ADME
Procedure: In vitro stability studies were conducted using our previously published methods naive CD1 mouse plasma or liver homogenate. For liver homogenate stability study, washed mouse liver was diluted 10-fold in 0.1 M potassium phosphate buffer and homogenized using probe sonication. Crude homogenate was then aliquoted to 1 mL, and the homogenate was spiked with 10 µM compound. The plasma stability of the compounds was determined by spiking (10 µM) in 1 mL of plasma and incubating in an orbital shaker at 37°C. All the stability studies were conducted at predetermined times (0, 30, and 60 min), where 100 µL aliquots of the mixture in triplicate were removed and the reaction was quenched by the addition of three times the volume of ice-cold acetonitrile spiked with the internal standard (losartan: 0.5 µM). The samples were vortex-mixed for 30 s and centrifuged at 10,000g for 10 min at 4°C. An amount of 50 µL of the supernatant was diluted with 50 µL of water and transferred to a 250 µL polypropylene vial sealed with a Teflon cap. Compound disappearance was monitored over time using liquid chromatography and tandem mass spectrometry (LC–MS/MS). Paired t-tests were used to determine statistical significance between 0 and 60 min time points.

SMILES | protection against UTI ([1]; BAP single 300 mg/kg IP dose 30 min prior to inoculation, 300 mg/kg) | median log reduction of bacterial burden vs PBS-treated cohort ([1]; BAP trial 1: 300 mg/kg IP 30 min before inoculation (1 dose)) | median log reduction of bacterial burden vs PBS-treated cohort ([1]; BAP trial 2: 600 mg/kg IP 30 min before inoculation, 300 mg/kg at 1 and 3 hpi (3 doses)) | median log reduction of bacterial burden vs PBS-treated cohort ([1]; BAP trial 3: 600 mg/kg IP 30 min before inoculation, 300 mg/kg at 1, 3 and 24 hpi (4 doses)) | log reduction of bacterial burden vs PBS control ([1]; regimen 4: BAP 600 mg/kg IP 30 min before inoculation, 300 mg/kg at 1, 3, 6, 10, 22, 26 and 30 hpi) | MICs ([2]; under nutrient limitation) | % remaining in plasma ([3]; 10 µM, 37°C, at 1 h) | median log reduction of bacterial burden vs PBS-treated cohort ([1]; pro-hpAP 60 mg/kg IP 30 min before inoculation, 30 mg/kg at 1, 3 and 24 hpi (4 doses)) | MIC ([2]; standard nutrient limitation conditions) | remaining at 1 h, 10 µM ([3]; CD1, 37°C)
CCCCOP(=O)(O)C(C)=O [BAP, butyl acetylphosphonate] | not adequate to provide protection against UPEC infection; also recorded: provides no protection against UTI | no reduction | 1.05 log | 1.14 log | 1.32 log | low micromolar range | 79% | – | – | –
C#CCCOP(=O)(O)C(=C)NC(=O)C(CC(C)C)NC(=O)CN (stereo not shown) [pro-hpAP] | – | – | – | – | – | – | – | 1.42 log | ~ 20 nM | 95%
